Data: ChEMBL document CHEMBL3885881, “DrugMatrix”

Species: Rattus norvegicus
Assay: DrugMatrix - Regimen: Daily Repeat
Format: toxicity, organism-based, Sprague-Dawley
Set-up: regimen Daily Repeat, gender Male, age 6-8 weeks
Conditions: in vivo, po, route oral GAVAGE, […]; for ABSOLUTE BASOPHIL / ABSOLUTE EOSINOPHIL / ABSOLUTE LYMPHOCYTE / ABSOLUTE MONOCYTE / ABSOLUTE SEGMENTED NEUTROPHIL / BASOPHIL / EOSINOPHIL / ERYTHROCYTE COUNT / HEMATOCRIT / HEMOGLOBIN / LEUKOCYTE COUNT / LYMPHOCYTE / MEAN CORPUSCULAR HEMOGLOBIN / MEAN CORPUSCULAR HEMOGLOBIN CONCENTRATION / MEAN CORPUSCULAR VOLUME / MONOCYTE / NEUTROPHIL / NUCLEATED RED BLOOD CELLS / PLATELET COUNT: tissue Blood; for ALANINE AMINOTRANSFERASE / ALBUMIN / ALKALINE PHOSPHATASE / ASPARTATE AMINOTRANSFERASE / BLOOD UREA NITROGEN / CARBON DIOXIDE / CHLORIDE / CHOLESTEROL / CREATINE PHOSPHOKINASE / CREATININE / GLUCOSE / LACTATE DEHYDROGENASE / LIPASE / PHOSPHORUS / POTASSIUM / SODIUM / TOTAL BILIRUBIN / TOTAL PROTEIN / URIC ACID: tissue Plasma
[1] = 0 mg/kg, 72 h, dose level Control, time 3 day
[2] = 0 mg/kg, 120 h, dose level Control, time 5 day
[3] = 50 mg/kg, 72 h, dose level Low, time 3 day

COC(=O)Nc1nc2ccc(C(=O)c3ccccc3)cc2[nH]1 [MEBENDAZOLE]
ABSOLUTE BASOPHIL [1]: 0 CELLS/uL
ABSOLUTE EOSINOPHIL [1]: 0 CELLS/uL
ABSOLUTE LYMPHOCYTE [1]: 9244.83 CELLS/uL
ABSOLUTE MONOCYTE [1]: 102 CELLS/uL
ABSOLUTE SEGMENTED NEUTROPHIL [1]: 869.83 CELLS/uL
BASOPHIL [1]: 0%
EOSINOPHIL [1]: 0%
ERYTHROCYTE COUNT [1]: 5.43 x10E6/uL
HEMATOCRIT [1]: 34.03%
HEMOGLOBIN [1]: 13.27 G/DL
LEUKOCYTE COUNT [1]: 10.22 x10E3/uL
LYMPHOCYTE [1]: 90.33%
MEAN CORPUSCULAR HEMOGLOBIN [1]: 24.48 pg
MEAN CORPUSCULAR HEMOGLOBIN CONCENTRATION [1]: 39.03 G/DL
MEAN CORPUSCULAR VOLUME [1]: 62.75 fL
MONOCYTE [1]: 1%
NEUTROPHIL [1]: 8.67%
NUCLEATED RED BLOOD CELLS [1]: 0.17 /100WBC
PLATELET COUNT [1]: 989 x10E3/uL
ALANINE AMINOTRANSFERASE [1]: 77 u/L
ALBUMIN [1]: 3.97 G/DL
ALKALINE PHOSPHATASE [1]: 464.83 u/L
ASPARTATE AMINOTRANSFERASE [1]: 89.83 u/L
BLOOD UREA NITROGEN [1]: 12.17 mg/dL
CARBON DIOXIDE [1]: 34.17 mmol/L
CHLORIDE [1]: 98.33 MEQ/L
CHOLESTEROL [1]: 75.17 mg/dL
CREATINE PHOSPHOKINASE [1]: 367.67 u/L
CREATININE [1]: 0.16 mg/dL
GLUCOSE [1]: 142.67 mg/dL
LACTATE DEHYDROGENASE [1]: 139.33 u/L
LIPASE [1]: 9.5 u/L
PHOSPHORUS [1]: 10.85 mg/dL
POTASSIUM [1]: 6.38 MEQ/L
SODIUM [1]: 143.2 MEQ/L
TOTAL BILIRUBIN [1]: 0.2 mg/dL
TOTAL PROTEIN [1]: 5.77 G/DL
URIC ACID [1]: 0.7 mg/dL
ABSOLUTE BASOPHIL [2]: 0 CELLS/uL
ABSOLUTE EOSINOPHIL [2]: 0 CELLS/uL
ABSOLUTE LYMPHOCYTE [2]: 8295.33 CELLS/uL
ABSOLUTE MONOCYTE [2]: 84.67 CELLS/uL
ABSOLUTE SEGMENTED NEUTROPHIL [2]: 970 CELLS/uL
BASOPHIL [2]: 0%
EOSINOPHIL [2]: 0%
ERYTHROCYTE COUNT [2]: 5.74 x10E6/uL
HEMATOCRIT [2]: 36.22%
HEMOGLOBIN [2]: 13.85 G/DL
LEUKOCYTE COUNT [2]: 9.35 x10E3/uL
LYMPHOCYTE [2]: 88.67%
MEAN CORPUSCULAR HEMOGLOBIN [2]: 24.13 pg
MEAN CORPUSCULAR HEMOGLOBIN CONCENTRATION [2]: 38.25 G/DL
MEAN CORPUSCULAR VOLUME [2]: 63.08 fL
MONOCYTE [2]: 1%
NEUTROPHIL [2]: 10.33%
NUCLEATED RED BLOOD CELLS [2]: 0.17 /100WBC
PLATELET COUNT [2]: 883.83 x10E3/uL
ALANINE AMINOTRANSFERASE [2]: 64.5 u/L
ALBUMIN [2]: 4.12 G/DL
ALKALINE PHOSPHATASE [2]: 425.67 u/L
ASPARTATE AMINOTRANSFERASE [2]: 88.5 u/L
BLOOD UREA NITROGEN [2]: 14.17 mg/dL
CARBON DIOXIDE [2]: 30.5 mmol/L
CHLORIDE [2]: 100.33 MEQ/L
CHOLESTEROL [2]: 55.33 mg/dL
CREATINE PHOSPHOKINASE [2]: 287.17 u/L
CREATININE [2]: 0.2 mg/dL
GLUCOSE [2]: 162.83 mg/dL
LACTATE DEHYDROGENASE [2]: 111.33 u/L
LIPASE [2]: 10.5 u/L
PHOSPHORUS [2]: 10.32 mg/dL
POTASSIUM [2]: 5.13 MEQ/L
SODIUM [2]: 143.93 MEQ/L
TOTAL BILIRUBIN [2]: 0.17 mg/dL
TOTAL PROTEIN [2]: 5.9 G/DL
URIC ACID [2]: 0.77 mg/dL
ABSOLUTE BASOPHIL [3]: 0 CELLS/uL
ABSOLUTE EOSINOPHIL [3]: 0 CELLS/uL
ABSOLUTE LYMPHOCYTE [3]: 11176.67 CELLS/uL
ABSOLUTE MONOCYTE [3]: 118.33 CELLS/uL
ABSOLUTE SEGMENTED NEUTROPHIL [3]: 1305 CELLS/uL
BASOPHIL [3]: 0%
EOSINOPHIL [3]: 0%
ERYTHROCYTE COUNT [3]: 5.06 x10E6/uL
HEMATOCRIT [3]: 32%
HEMOGLOBIN [3]: 12.6 G/DL
LEUKOCYTE COUNT [3]: 12.6 x10E3/uL
LYMPHOCYTE [3]: 89.33%
MEAN CORPUSCULAR HEMOGLOBIN [3]: 24.93 pg
MEAN CORPUSCULAR HEMOGLOBIN CONCENTRATION [3]: 39.43 G/DL
MEAN CORPUSCULAR VOLUME [3]: 63.27 fL
MONOCYTE [3]: 1%
NEUTROPHIL [3]: 9.67%
NUCLEATED RED BLOOD CELLS [3]: 0 /100WBC
PLATELET COUNT [3]: 983 x10E3/uL
ALANINE AMINOTRANSFERASE [3]: 78 u/L
ALBUMIN [3]: 3.87 G/DL
ALKALINE PHOSPHATASE [3]: 423.67 u/L
ASPARTATE AMINOTRANSFERASE [3]: 86.33 u/L
BLOOD UREA NITROGEN [3]: 12.33 mg/dL
CARBON DIOXIDE [3]: 32 mmol/L
CHLORIDE [3]: 100 MEQ/L
CHOLESTEROL [3]: 74.67 mg/dL
CREATINE PHOSPHOKINASE [3]: 274.33 u/L
CREATININE [3]: 0.25 mg/dL
GLUCOSE [3]: 142.67 mg/dL
LACTATE DEHYDROGENASE [3]: 145 u/L
LIPASE [3]: 11 u/L
PHOSPHORUS [3]: 11.2 mg/dL
POTASSIUM [3]: 5.98 MEQ/L
SODIUM [3]: 144.33 MEQ/L
TOTAL BILIRUBIN [3]: 0.17 mg/dL
TOTAL PROTEIN [3]: 5.53 G/DL
URIC ACID [3]: 0.77 mg/dL
